Experimental data: patent US7053043B1, “Pharmaceutical compositions comprising synthetic peptide copolymers and methods for preventing and treating GVHD and HVGD” (Yeda Research and Development Co.Ltd., priority 1999, dated 2006)

Tests used:
[1] = test system: proliferation of B10.PL (H-2u) responder cells to PL/J stimulator cells; assay: Mixed lymphocyte reaction (MLR) across minor histocompatibility barriers; type: cell-based, mice; details: 20 μg/well, Cop 1 Batch I, 1:1 ratio of responder to stimulator cells
Protocol: Responder cells for MLR reactions across major histocompatibility barriers were harvested from spleen of non-immunized mice while responder cells for MLR across minor histocompatibility barriers were harvested from mice which were preimmunized with irradiated (30 Gy) 50×10^6 stimulator spleen cells 21 days before. Responder cells (5×10^5 spleen cells per well) were tested for their proliferative response by plating with different amounts (2.5 to 10×10^5) of irradiated stimulator cells, in presence or absence of various peptide inhibitors (10–100 μg per well). Cultures were set up in 200 μl media containing 10% FCS in flat-bottom microtiter plates. After 4 days of incubation, cultures were pulsed with 1 μCi of [^3H]thymidine for an additional 16 hours. Results are represented as mean counts per minute (cpm) thymidine incorporation from triplicate cultures.
To investigate the feasibility of inhibition of MLR by Copolymer 1, an MLR system was developed in which Copolymer 1 was tested for its ability to inhibit the proliferation of B10.PL (H-2^u) responder cells to stimulator cells of either the same (PL/J) or different (BALB/c) H-2 haplotype. For comparison, the inhibitory MBP Ac 1-11[4A], MBP 35-47, a combination of Ac 1-1[4A]+MBP 35-47, MBP 89-101 and KM-core peptides, described in Schlegel et al. (1994), were used in the MLR experiments.
The inhibition obtained by Copolymer 1 was similar (in response to minor histocompatibility antigen) or even higher (in response to major histocompatibility antigen) than the inhibition obtained with the combination of the two synthetic peptides Ac 1-11[4A] and MBP 35-47, which specifically bind to the class II molecules I-A^u and the I-E^u, respectively. The molar efficiency of Copolymer 1 of M.W. 6000 is even higher since the molecular weight of the synthetic peptides is 4–5 fold lower.

[2] = test system: presentation of BALB/c minor H antigens by B10.D2 APC to B10.D2 responder T cells; assay: Proliferative responses to minor H antigens, APC pre-pulsed with Cop 1 and washed; type: cell-based, mice; details: washed
Protocol: B10.D2 mice were injected ip. with irradiated (20 Gy) BALB/c spleen cells 72 hours prior to the assay. B10.D2 spleen cells were harvested, depleted of red blood cells (RBC) and used as irradiated (10 Gy) antigen-presenting cells (APC) presenting BALB/c mH antigens. For the primary assay, APC were plated at 2.5×10^5 cells per well in 96-well round-bottom plates and incubated with 2.5×10^5 nylon-wool-enriched responder T cells (>88% CD3^+ by FACS analysis) from naive B10.D2 mice in the presence or absence of increasing concentrations of Copolymer 1 (2.5–80 μg/well). After 96 hours of incubation, cells were pulsed with 1 μCi [^3H]-thymidine for an additional 16 hours before harvesting. In the secondary assay, irradiated APC were plated at 2.5×10^5 cells/well in 96-well round-bottom plates, preincubated for 24 hours at 37° C. with increasing concentrations of GLAT (2.5–80 μg/well) or with medium alone, and thereafter washed three times before the addition of 2.5×10^5 nylon-wool-enriched responder T cells from naive B10.D2 mice. Culture medium was RPMI 1640, supplemented with 10% pre-screened fetal calf serum, 2 mM glutamine, 50 μM 2-mercaptoethanol, 100 U/ml penicillin, and 100 μg/ml streptomycin.
[…] Results are expressed as cpm from triplicate cultures. Standard deviations were <20% of the mean. Culture medium was RPMI 1640, supplemented with 10% pre-screened fetal calf serum, 2 mM glutamine, 50 μM 2-mercaptoethanol, 100 U/ml penicillin, and 100 μg/ml streptomycin.

[3] = test system: function of transplanted thyroids; assay: Thyroid graft assay for HVGD (125I absorption of thyroid transplanted in kidney capsule); type: in vivo, mice
Protocol: In this transplantation model for HVGD, thyroid glands from donor mice were transplanted in the kidney's capsules of recipient mice. One week later the transplanted mice were injected with ^125I, and the radioactivity of each kidney (the recipient or the untransplanted kidney) was measured after 20 hours. Δcpm was calculated by subtracting the ^125I absorbance of the untransplanted kidneys from the ^125I absorbance of the recipient kidneys in the same treatment. The mean function index (MFI) for treatment was calculated by dividing the mean Δcpm for the tested (Copolymer 1) treatment by the mean Δcpm for the PBS treatment. P values were obtained by the t test. This assay indicates objectively and quantitatively not only the graft survival, but also the function (iodine absorbance) of the transplanted thyroid tissue (Isakov et al., 1979).
The transplanted mice were treated daily with Copolymer 1 600 μg/day (300 μg ip+300 μg sc) in PBS solution, starting 7 days before transplantation. The first Cop 1 treatment on day −7 was injected sc in ICFA as a depot dose. Control mice were treated daily with PBS alone and PBS with ICFA on day −7 before transplantation.
To test the effect of Copolymer 1 treatment on the function of transplanted thyroids in the B10.D2→BALB/c model, thyroid glands from donors B10.D2 were transplanted in the kidney's capsules of BALB/c mice. After one week the transplanted mice were injected with ^125I, and the radioactivity of each kidney was measured 20 hours later. cpm was calculated by subtracting the ^125I absorbance of the untransplanted kidneys from the ^125I absorbance of the recipient kidneys in the same treatment. The mean function index (MFI) for each treatment was calculated by dividing the mean ^125I absorbance of (transplanted kidney-untransplanted kidney) in the tested treatment by the mean ^125I absorbance of (transplanted kidney-untransplanted kidney) in the PBS treatment, as follows: […]

[4] = B10.D2 → BALB, H-2d, another experiment (N 5), Cop 1 600 μg/day
[5] = B10.D2 → BALB/c, H-2d, Cop 1 600 μg, N 10
[6] = B10PL → PL/J, H-2d, Cop 1 600 μg/day
[7] = C57BL → BALB, H-2b → H-2d, Cop 1 600 μg/day
[8] = C57BL → C3H, H-2b, Cop 1 600 μg/day

**Q.** With Glatiramer acetate [Cop 1] as the substance, how does the “inhibition of MLR” value [1] read?
**A.** Its value is 63%.

**Q.** And the “cpm (Cop 1 Pulsing Concentration)” value ([2]; APC pre-pulsed 24 hours with Cop 1 1.5 μg (Batch II))?
**A.** Its value is 15,533 cpm.

**Q.** And the “cpm (Cop 1 Pulsing Concentration)” value ([2]; APC pre-pulsed 24 hours with Cop 1 5 μg (Batch II))?
**A.** Its value is 12,377 cpm.

**Q.** And the “cpm (Cop 1 Pulsing Concentration)” value ([2]; APC pre-pulsed 24 hours with Cop 1 10 μg (Batch II))?
**A.** The value was 11,425 cpm.

**Q.** And the “cpm (Cop 1 Pulsing Concentration)” value ([2]; APC pre-pulsed 24 hours with Cop 1 20 μg (Batch II))?
**A.** The value was 10,465 cpm.

**Q.** What about the “cpm (Cop 1 Pulsing Concentration)” value ([2]; APC pre-pulsed 24 hours with Cop 1 40 μg (Batch II)) of the same substance?
**A.** The value was 7,653 cpm.

**Q.** What about the “cpm (Cop 1 Pulsing Concentration)” value ([2]; APC pre-pulsed 24 hours with Cop 1 80 μg (Batch II)) of the same substance?
**A.** The value was 4,628 cpm.

**Q.** What about the “Mean 125I Absorption, Transplanted Kidney (cpm)” value [3, 4] of the same substance?
**A.** Its value is 1035 cpm.

**Q.** What about the “Mean 125I Absorption, Untransplanted Kidney (cpm)” value [3, 4] of the same substance?
**A.** The value was 137 cpm.

**Q.** And the “cpm (transplanted minus untransplanted kidney)” value [3, 4]?
**A.** The value was 898 cpm.

**Q.** What about the “Mean 125I Absorption, Transplanted Kidney (cpm)” value [3, 5] of the same substance?
**A.** The value was 2901 cpm.

**Q.** What about the “Mean 125I Absorption, Untransplanted Kidney (cpm)” value [3, 5] of the same substance?
**A.** Its value is 450 cpm.

**Q.** And the “cpm (transplanted minus untransplanted kidney)” value [3, 5]?
**A.** Its value is 2451 cpm.

**Q.** What about the “Mean 125I Absorption, Transplanted Kidney (cpm)” value [3, 6] of the same substance?
**A.** The value was 2009 cpm.

**Q.** And the “Mean 125I Absorption, Untransplanted Kidney (cpm)” value [3, 6]?
**A.** The value was 332 cpm.

**Q.** What about the “cpm (transplanted minus untransplanted kidney)” value [3, 6] of the same substance?
**A.** Its value is 1677 cpm.

**Q.** What about the “Mean 125I Absorption, Transplanted Kidney (cpm)” value [3, 7] of the same substance?
**A.** Its value is 10759 cpm.

**Q.** And the “Mean 125I Absorption, Untransplanted Kidney (cpm)” value [3, 7]?
**A.** The value was 924 cpm.

**Q.** What about the “cpm (transplanted minus untransplanted kidney)” value [3, 7] of the same substance?
**A.** Its value is 9835 cpm.

**Q.** And the “Mean 125I Absorption, Transplanted Kidney (cpm)” value [3, 8]?
**A.** Its value is 1643 cpm.

**Q.** And the “Mean 125I Absorption, Untransplanted Kidney (cpm)” value [3, 8]?
**A.** Its value is 281 cpm.

**Q.** What about the “cpm (transplanted minus untransplanted kidney)” value [3, 8] of the same substance?
**A.** The value was 1362 cpm.

**Q.** What about the “MFI (mean function index)” value ([3]; folds over PBS treatment, B10.D2 → BALB, H-2d, another experiment (N 5), Cop 1 600 μg/day) of the same substance?
**A.** Its value is 5.2.

**Q.** And the “MFI (mean function index)” value ([3]; folds over PBS treatment, B10.D2 → BALB/c, H-2d, Cop 1 600 μg, N 10)?
**A.** The value was 3.2.

**Q.** What about the “MFI (mean function index)” value ([3]; relative to PBS treatment, B10PL → PL/J, H-2d, Cop 1 600 μg/day) of the same substance?
**A.** Its value is 2.5.

**Q.** And the “MFI (mean function index)” value ([3]; relative to PBS treatment, C57BL → BALB, H-2b → H-2d, Cop 1 600 μg/day)?
**A.** Its value is 3.0.

**Q.** And the “MFI (mean function index)” value ([3]; relative to PBS treatment, C57BL → C3H, H-2b, Cop 1 600 μg/day)?
**A.** The value was 2.3.
